Measurements as given in US6130250A, “Veterinary use of a pleuromutilin derivative” (priority 1996, dated 2000).
Values after ≈ are worked out from the molar mass of the structure shown. Read-outs that look alike come from different tables or passages of the source.

Columns and labels:
coccidia = settings: fowl; cited from earlier work
[1] = hen; cited from earlier work
[2] = pig; cited from earlier work
M. hyopneumoniae = experiment: MIC, microtitre broth, ten field isolates and type strain J of M. hyopneumoniae; assay type: cell-based, Mycoplasma hyopneumoniae
Text: Tissue samples are obtained from the lungs of pigs from various enzootic pneumonia of pigs (EPP)-affected herds. Samples are shipped on dry ice for culture. M. hyopneumoniae is recovered from freshly sectioned lung tissue by direct culture onto Mycoplasma Experience agar. This technique allows the distinctive colonies of M. hyopneumoniae to be recognised and readily separated, by cloning from other faster growing mycoplasma species such as Mycoplasma hyorhinis, often present in EPP lung samples. Isolates are subcultured and identified by disc growth inhibition using specific rabbit antiserum raised to M. hyopneumoniae NCTC 10110.
Cultures for antibiotic challenge are prepared in Mycoplasma Experience broth, incubated aerobically at 36° C.
A commercially available solid medium (Mycoplasma Experience Ltd.) is used to isolate M. hyopneumoniae from lung tissue. A liquid medium (Mycoplasma Experience Ltd.) containing phenol red and glucose (pH 7.6) is used for the MIC assays.
(§1) Stock solutions of test compound are prepared at 1 mg/ml concentration in deionised water, sterilised by filtration through 0.2μ pore size membrane filters (Sartorius Minisart, N) and stored at -20° C. For use in the MIC tests the stock solutions are diluted in liquid medium to double the final concentrations required. MIC tests are carried out according to the method of Tanner & Wu, Avian Diseases 36 (1992) 714-717. Actively growing challenge cultures are prepared either from 1 ml aliquots of broth cultures stored at -70° C. or from cultures stored on agar at -70° C. The challenge cultures are diluted to give a target titre of 10^3 to 10^5 colour changing units/ml. 0.1 ml aliquots of challenge inocula are mixed with 0.1 ml aliquots of antibiotic dilution in microtitre wells. Each microtitre plate contains uninoculated media at pH 6.8 (M. hyopneumoniae) (end point control) and antibiotic-free inoculated challenge controls. All plates are sealed with adhesive film and incubated aerobically at 36° C. MICs are recorded when the colour change in the challenge control wells match the pH of the end point control. The MIC is the lowest concentration showing no colour change.

Mycoplasma hyosynoviae = experiment: MIC assay, 7 field isolates of Mycoplasma hyosynoviae; assay type: cell-based; settings: Mycoplasma; 7 field isolates
Procedure: Tissue samples are obtained from the lungs of pigs from various enzootic pneumonia of pigs (EPP)--affected herds. Samples are shipped on dry ice for culture. Four isolates from lung samples initially isolated for recovery of Mycoplasma hyopneumoniae were reisolated for Mycoplasma hyosynoviae after it had been noted from the lung samples submitted (re-stored at -70° C.), during culture for M. hyopneumoniae, that some samples yielded luxuriant growth of colonies having the typical morphology of Mycoplasma hyosynoviae. Three further isolates were recovered from other lung samples provided. All isolates were serologically identified by disc growth inhibition with specific rabbit antiserum raised against Mycoplasma hyosynoviae. A commerically available solid medium (Mycoplasma Experience Ltd.) is used to isolate M. hyosynoviae from lung tissue. A liquid medium (Mycoplasma Experience Ltd.) containing phenol red and arginine (pH 7.0) is used for the MIC assay.
as §1, with “and” for “&”, “7.6” for “6.8 (M. hyopneumoniae)”, “matches” for “match”

[3] = Mesomycoplasma hyopneumoniae, field strains (n = 10)

Row | MIC (M. hyopneumoniae; Mesomycoplasma hyopneumoniae, NCTC10110, Type Strain J (NCTC 10110), read-out: MIC) [µg/mL] | MIC50 (M. hyopneumoniae; [3]) [µg/mL] | MIC90 (M. hyopneumoniae; [3]) [µg/mL] | MIC (M. hyopneumoniae; Mesomycoplasma hyopneumoniae, field strains (n = 10), read-out: MIC range) [µg/mL] | MIC (Mycoplasma hyosynoviae) [µg/mL] | SMILES | dosage showing activity against coccidia (coccidia) | dosage showing growth-promoting activity [1] | dosage showing growth-promoting activity [2] | susceptibility of field isolates (M. hyopneumoniae; field isolates)
1 | – | – | – | – | – | C=C[C@]1(C)C[C@@H](OC(=O)CSC(C)(C)CNC(=O)[C@H](N)C(C)C)[C@]2(C)[C@H](C)CC[C@]3(CCC(=O)[C@H]32)[C@@H](C)[C@@H]1O [compound of formula I, 14-O-[1-[(R)-2-amino-3-methylbutyrylamino]-2-methylpropan-2-ylthioacetyl]mutilin] | 20-150 mg/kg of feed | 10-50 mg/kg of feed | 10-50 mg/kg of feed | –
2 | 0.025 (≈ 0.0696 µM) | 0.005 (≈ 0.0139 µM) | 0.01 (≈ 0.0278 µM) | 0.0025 to 0.025 (≈ 0.00696 to 0.0696 µM) | 0.025 to 0.25 (≈ 0.0696 to 0.696 µM) | CCN1CCN(c2cc3c(cc2F)c(=O)c(C(=O)O)cn3C2CC2)CC1 [enrofloxacin] | – | – | – | very good sensitivity
